From paper PMC7997396 (Cell host & microbe, 2020)

Target: mouse Trpa1 (Mus musculus, UniProt Q8BLA8)
Assay: Ca2+ influx assay in HEK-293T cells transfected with mouse TRPA1
Type: cell-based

Chain of mouse Trpa1 (Q8BLA8 whole entry): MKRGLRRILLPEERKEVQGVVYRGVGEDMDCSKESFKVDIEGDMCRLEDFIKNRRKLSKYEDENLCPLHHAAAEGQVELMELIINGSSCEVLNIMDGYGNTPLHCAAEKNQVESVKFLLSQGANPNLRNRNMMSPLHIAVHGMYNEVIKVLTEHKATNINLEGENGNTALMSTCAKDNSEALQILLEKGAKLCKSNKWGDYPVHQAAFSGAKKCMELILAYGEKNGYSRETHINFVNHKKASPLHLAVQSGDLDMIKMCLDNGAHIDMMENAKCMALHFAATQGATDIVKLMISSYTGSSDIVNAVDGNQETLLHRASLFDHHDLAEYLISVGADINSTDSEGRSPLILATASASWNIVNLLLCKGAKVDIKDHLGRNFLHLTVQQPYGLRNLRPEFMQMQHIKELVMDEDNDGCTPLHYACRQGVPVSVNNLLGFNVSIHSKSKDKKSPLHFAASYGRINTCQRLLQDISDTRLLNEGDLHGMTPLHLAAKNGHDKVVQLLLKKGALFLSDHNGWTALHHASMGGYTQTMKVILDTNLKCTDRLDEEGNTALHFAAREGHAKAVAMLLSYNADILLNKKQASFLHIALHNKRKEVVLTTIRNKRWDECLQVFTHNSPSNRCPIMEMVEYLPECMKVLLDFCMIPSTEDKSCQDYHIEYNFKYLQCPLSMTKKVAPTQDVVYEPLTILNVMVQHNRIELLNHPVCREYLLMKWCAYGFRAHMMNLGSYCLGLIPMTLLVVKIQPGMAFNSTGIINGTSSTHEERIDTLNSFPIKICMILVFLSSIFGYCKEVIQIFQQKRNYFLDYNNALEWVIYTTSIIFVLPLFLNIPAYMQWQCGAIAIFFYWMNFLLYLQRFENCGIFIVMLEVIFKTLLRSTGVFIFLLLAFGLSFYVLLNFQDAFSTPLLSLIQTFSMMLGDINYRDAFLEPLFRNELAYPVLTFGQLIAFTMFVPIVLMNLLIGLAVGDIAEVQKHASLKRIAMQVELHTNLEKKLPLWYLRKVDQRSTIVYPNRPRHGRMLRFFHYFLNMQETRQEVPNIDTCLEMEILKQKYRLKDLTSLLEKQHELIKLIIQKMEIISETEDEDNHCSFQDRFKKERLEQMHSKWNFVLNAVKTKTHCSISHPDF

| Compound | Ca2+ influx assay in HEK-293T cells transfected with mouse TRPA1 |
| --- | --- |
| O=Cc1c[nH]c2ccccc12 [IAld, Indole-3-carboxaldehyde] | Both indole and IAld also activated mouse Trpa1, but in a less potent manner |
| c1ccc2[nH]ccc2c1 [Indole] | Both indole and IAld also activated mouse Trpa1, but in a less potent manner |
